# Data reported in patent US20120245229A1, “METHOD FOR TREATING NEUROPATHIC PAIN” (priority 2009, published 2012).
# Tests used:
# [1] = tested on: carrageenan (CRG)-elicited heat hyperalgesia; assay: Carrageenan (CRG)-elicited heat hyperalgesia; assay type: in vivo, mice; conditions: intraplantar pretreatment, 20 ng, 10 min before carrageenan
# Experimental: (§1) Animals and pain models. Adult CD1 mice (male, 25-32 g) were used for most experiments. Knockout mice were used lacking TNFR1/II (Tnfrsf1a/1b^−/−) and TRPV1 (Trpv1^−/−) and C57BL/6 wild-type control mice, all from Jackson, for some experiments. All animal procedures performed in this study were approved by the Harvard Medical Area Standing Committee on Animals. 20 μl of diluted formalin (5%), carrageenan (CRG, 1%), or complete Freund's adjuvant (CFA) were injected into the plantar surface of a hindpaw to produce acute, persistent, or chronic inflammatory pain, respectively. Postoperative pain was also produced through hindpaw incision^36 and neuropathic pain by ligation of the spinal nerve^37.
# (§2) Behavioral analysis. Mice were habituated in the testing environment for two days and performed behavioral testing in a blinded manner. Formalin-evoked spontaneous inflammatory pain was assessed by measuring duration (seconds) animals spent on licking/flinching the affected paws every 5 min for 45 min. Capsaicin-induced spontaneous pain was aslo assessed for 10 min. For testing mechanical sensitivity, mice were put in boxes on an elevated metal mesh floor and stimulated hindpaw with a series of von Frey hairs with logarithmically incrementing stiffness (0.02-2.56 grams, Stoelting), presented perpendicular to the plantar surface. It was determined the 50% paw withdrawal threshold using Dixon's up-down method^40. For testing heat sensitivity, mice were placed in plastic boxes and tested heat sensitivity using Hargreaves radiant heat apparatus (IITC Life Science Inc.). The basal paw withdrawal latency was adjusted to 9-12 seconds and set a cut-off of 20 seconds to prevent tissue damage. The percent maximal possible antinociceptive effect (% M.P.E) was calculated using the equation % M.P.E.=[(PL−BL2)/(BL1−BL2)]×100. BL1, baseline latency before inflammation; BL2, baseline latency after inflammation but before drug injection; PL, latency post drug injection.
# Resolvins were also used for intraplantar injection. […]
# [2] = tested on: complete Freund's adjuvant (CFA)-evoked heat hyperalgesia; assay: CFA-evoked heat hyperalgesia (paw withdrawal latency, Hargreaves); assay type: in vivo, mice; conditions: intrathecal, post-CFA day 3; DHA and EPA 10 μg
# Experimental: as §1
# Reagents and administration. RvE1 and RvD1 were suspended in 1% or 10% ethanol as vehicle for investigating acute (<1 h) and persistent (1-6 h) effects of resolvins on inflammatory pain. The reagents (10 μl) were delivered to the cerebral spinal fluid via intrathecal injection made by a spinal cord puncture between the L5 and L6 level with a 30G needle^38.
# as §2
# Intrathecal injection. To avoid systemic effects of drugs and target spinal mechanisms, drugs were delivered into cerebral spinal fluid (CSF) space around lumbosacral spinal cord via intrathecal (i.t.) administration. Spinal cord puncture was made with a 30G needle between the L5 and L6 level to deliver the reagents (10 μl) to the cerebral spinal fluid (Hylden and Wilcox, 1980)^5. […] In addition to spinal cord cells, intrathecal drug administration also affects DRG cells^6,7.
# The anti-hyperalgesic efficacy of RvE1 prepared in 1% and 10% ethanol was compared on post-CFA day 3.
# inflammatory pain = assay: Inflammatory pain models induced by formalin or CFA (summary statements); assay type: in vivo, mouse
# Experimental: as §1, §2
# [3] = tested on: paw incision-induced postoperative pain; assay: Postoperative pain model induced by hindpaw incision; assay type: in vivo, mice; conditions: intraplantar 20 ng, 10 min before paw incision
# Experimental: as §1
# Behavioral analysis. Mice were habituated in the testing environment for two days and performed behavioral testing in a blinded manner. Formalin-evoked spontaneous inflammatory pain was assessed by measuring duration (seconds) animals spent on licking/flinching the affected paws every 5 min for 45 min. Capsaicin-induced spontaneous pain was aslo assessed for 10 min. […] It was determined the 50% paw withdrawal threshold using Dixon's up-down method^40. […] The percent maximal possible antinociceptive effect (% M.P.E) was calculated using the equation % M.P.E.=[(PL−BL2)/(BL1−BL2)]×100. […]
smiles,measurement,setting,value
CC/C=C\C[C@H](O)/C=C/C=C\C=C\C=C\[C@@H](O)[C@@H](O)C/C=C\CCC(=O)O [RvD1],CRG-evoked heat hyperalgesia,[1],substantially attenuated
same,CFA-evoked heat hyperalgesia,[2],Attenuation
same,pain-like behaviors,inflammatory pain,potently inhibit
same,paw incision-induced mechanical allodynia,[3],attenuates the development of paw incision-induced mechanical allodynia
